Test results: patent publication US11427615B2, “Peptide compound and application thereof, and composition containing peptide compound” (XDCEXPLORER (SHANGHAI) CO., LTD., priority 2017, dated 2022)
Non-standard residues stand in square brackets, D forms with d. Residues, ends and D or L forms follow the SMILES beside them. *: point of attachment. X13 = CCCCCCCCCCCCCCCCSC1CC(=O)N(CCOCCOCCOCCOCCOCCOCCOCCOCCC(=O)*)C1=O; X8 = CCCCCCCCCCCCCCCCc1cn(CCOCCOCCOCCOCCOCCOCCOCCOCCC(=O)*)nn1; Arg(Me) = CNC(=N)NCCC[C@H](N)C(=O)O; Ala(cPr) = N[C@@H](CC1CC1)C(=O)O; Hyp = O=C(O)[C@@H]1C[C@@H](O)CN1; αMeL = CC(C)C[C@](C)(N)C(=O)O; Cba = N[C@@H](CC1CCC1)C(=O)O; Ac6c = NC1(C(=O)O)CCCCC1; azaGly = NNC(=O)O

target: T1, human kiss1 receptor (GPR54) (Homo sapiens, UniProt Q969F8); assay: Kiss1 receptor (GPR54) binding activity of agonists, FRET detection in NFAT-bla CHO-K1 cells; type: cell-based; details: GPR54; measured according to the method of effect Embodiment 1; preliminary data; read-out: Preliminary measurement data (GPR54) EC50
T1 construct: host or cells: NFAT-bla CHO-K1 cells (Chinese hamster ovary), purchased recombinant cell line
T1 sequence (Q969F8 whole entry): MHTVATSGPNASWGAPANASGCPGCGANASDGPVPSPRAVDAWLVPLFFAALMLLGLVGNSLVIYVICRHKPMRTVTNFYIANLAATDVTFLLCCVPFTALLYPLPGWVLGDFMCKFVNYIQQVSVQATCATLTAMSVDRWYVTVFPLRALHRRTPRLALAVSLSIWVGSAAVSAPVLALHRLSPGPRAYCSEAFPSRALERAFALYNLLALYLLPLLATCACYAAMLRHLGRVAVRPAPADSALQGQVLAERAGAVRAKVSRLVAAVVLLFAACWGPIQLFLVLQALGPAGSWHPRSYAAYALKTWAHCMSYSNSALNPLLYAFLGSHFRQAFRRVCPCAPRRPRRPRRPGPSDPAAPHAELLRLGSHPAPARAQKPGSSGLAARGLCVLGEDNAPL

| SMILES | EC50 |
| --- | --- |
| CCCCCCCCCCCCCCCCc1cn(CCOCCOCCOCCOCCOCCOCCOCCOCCC(=O)NCC(=O)NCC(=O)N[C@H](Cc2ccc(O)cc2)C(=O)N2C[C@H](O)C[C@H]2C(=O)N[C@@H](CC(N)=O)C(=O)N[C@H](C(=O)N[C@@H](Cc2ccccc2)C(=O)NNC(=O)N[C@@H](CC(C)C)C(=O)N[C@@H](CCCNC(=N)NC)C(=O)N[C@@H](Cc2c[nH]c3ccccc23)C(N)=O)[C@@H](C)O)nn1 [YA-367, M10 [Hexadecyl-1,2,3-Triazole-PEG8, G43, G44, D-Tyr45, Hyp46, des47, T49, AzaGly51, R(Me)53, W54]] (X8-GG[dY][Hyp]NTF[azaGly]L[Arg(Me)]W-NH2) | 103 pM |
| CNC(=N)NCCC[C@H](NC(=O)[C@H](CC(C)C)NC(=O)NNC(=O)[C@H](Cc1ccccc1)NC(=O)[C@@H](NC(=O)[C@H](CC(N)=O)NC(=O)[C@H](CC1CCC1)NC(=O)[C@@H](Cc1ccc(O)cc1)NC(C)=O)[C@@H](C)O)C(=O)N[C@@H](Cc1c[nH]c2ccccc12)C(N)=O [YA-380, Ac-(D-Tyr)-Cba-Asn-Thr-Phe-azaGly-Leu-Arg(Me)-Trp-NH2] (Ac-[dY][Cba]NTF[azaGly]L[Arg(Me)]W-NH2) | 191 pM |

More lines, now with the values ahead:

| EC50 | SMILES |
| --- | --- |
| 51 pM | CCCCCCCCCCCCCCCCSC1CC(=O)N(CCOCCOCCOCCOCCOCCOCCOCCOCCC(=O)NCC(=O)NCC(=O)N[C@H](Cc2ccc(O)cc2)C(=O)N2C[C@H](O)C[C@H]2C(=O)N[C@@H](CC(N)=O)C(=O)N[C@H](C(=O)N[C@@H](Cc2ccccc2)C(=O)NNC(=O)N[C@@H](CC(C)C)C(=O)N[C@@H](CCCNC(=N)NC)C(=O)N[C@@H](Cc2c[nH]c3ccccc23)C(N)=O)[C@@H](C)O)C1=O (stereo partly drawn) [YA-368, M10 [Hexadecyl-S-maleimide-PEG8, G43, G44, D-Tyr45, Hyp46, des47, T49, AzaGly51, R(Me)53, W54]] (X13-GG[dY][Hyp]NTF[azaGly]L[Arg(Me)]W-NH2) |
| 15 pM | CNC(=N)NCCC[C@H](NC(=O)[C@H](CC(C)C)NC(=O)NNC(=O)[C@H](Cc1ccccc1)NC(=O)[C@@H](NC(=O)[C@H](CC(N)=O)NC(=O)[C@](C)(CC(C)C)NC(=O)[C@@H](Cc1ccc(O)cc1)NC(C)=O)[C@@H](C)O)C(=O)N[C@@H](Cc1c[nH]c2ccccc12)C(N)=O [YA-379, Ac-(D-Tyr)-AlphaMeLeu-Asn-Thr-Phe-azaGly-Leu-Arg(Me)-Trp-NH2] (Ac-[dY][αMeL]NTF[azaGly]L[Arg(Me)]W-NH2) |
| 74 pM | CNC(=N)NCCC[C@H](NC(=O)[C@H](CC(C)C)NC(=O)NNC(=O)[C@H](Cc1ccccc1)NC(=O)[C@@H](NC(=O)[C@H](CC(N)=O)NC(=O)[C@H](CC1CC1)NC(=O)[C@@H](Cc1ccc(O)cc1)NC(C)=O)[C@@H](C)O)C(=O)N[C@@H](Cc1c[nH]c2ccccc12)C(N)=O [YA-383, Ac-(D-Tyr)-Cpa-Asn-Thr-Phe-azaGly-Leu-Arg(Me)-Trp-NH2] (Ac-[dY][Ala(cPr)]NTF[azaGly]L[Arg(Me)]W-NH2) |
| 41 pM | CNC(=N)NCCC[C@H](NC(=O)[C@H](CC(C)C)NC(=O)NNC(=O)[C@H](Cc1ccccc1)NC(=O)C1(NC(=O)[C@H](CC(N)=O)NC(=O)[C@@H]2C[C@@H](O)CN2C(=O)[C@@H](Cc2ccc(O)cc2)NC(C)=O)CCCCC1)C(=O)N[C@@H](Cc1c[nH]c2ccccc12)C(N)=O [YA-387, Ac-(D-Tyr)-Hyp-Asn-A6c-Phe-azaGly-Leu-Arg(Me)-Trp-NH2] (Ac-[dY][Hyp]N[Ac6c]F[azaGly]L[Arg(Me)]W-NH2) |

same assay, conditions: human kiss1 receptor (GPR54), NFAT-bla CHO-K1 cells, FRET; preliminary data; method of effect Embodiment 1; read-out: Preliminary measurement data (GPR54) EC50

| EC50 | SMILES |
| --- | --- |
| 1560 pM | CNC(=N)NCCC[C@H](NC(=O)[C@H](CC(C)C)NC(=O)[C@](C)(CC(C)C)NC(=O)[C@H](Cc1ccccc1)NC(=O)[C@@H](NC(=O)[C@H](CC(N)=O)NC(=O)[C@@H]1C[C@@H](O)CN1C(=O)[C@@H](Cc1ccc(O)cc1)NC(C)=O)[C@@H](C)O)C(=O)N[C@@H](Cc1c[nH]c2ccccc12)C(N)=O [YA-370, Ac-(D-Tyr)-Hyp-Asn-Thr-Phe-(α-Me-Leu)-Leu-Arg(Me)-Trp-NH2] (Ac-[dY][Hyp]NTF[αMeL]L[Arg(Me)]W-NH2) |
